Laboratory results reported in ChEMBL document CHEMBL1201862, “PubChem BioAssay data set” (2004).
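Following 48 hours of exposure in 96-well plates, responses at five concentrations were used to interpolate endpoints linearly. GI50: concentration for 50% inhibition of growth.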 Active and inactive are the calls of the source. Rule as the data show it: active = GI50 up to about 1.1 µM and inactive = higher.

Assays:
Assay in all cases: NCI-60 cell line screen, 48 h
[1] = tested on: 786-0
[2] = tested on: A498
[3] = tested on: A549
[4] = tested on: ACHN
[5] = tested on: BT-549
[6] = tested on: CAKI-1
[7] = tested on: CCRF-CEM
[8] = tested on: COLO 205
[9] = tested on: DU-145
[10] = tested on: EKVX
[11] = tested on: HCC 2998
[12] = tested on: HCT-116
[13] = tested on: HCT-15
[14] = tested on: HL-60
[15] = tested on: HOP-62
[16] = tested on: HOP-92
[17] = tested on: HT-29
[18] = tested on: Hs-578T
[19] = tested on: IGROV-1
[20] = tested on: K562
[21] = tested on: KM12
[22] = tested on: LOX IMVI
[23] = tested on: M14
[24] = tested on: MCF7
[25] = tested on: MDA-MB-231
[26] = tested on: MDA-MB-435
[27] = tested on: MDA-N
[28] = tested on: MOLT-4
[29] = tested on: Malme-3M
[30] = tested on: NCI-H23
[31] = tested on: NCI-H460
[32] = tested on: NCI/ADR-RES
[33] = tested on: OVCAR-3
[34] = tested on: OVCAR-4
[35] = tested on: OVCAR-5
[36] = tested on: OVCAR-8
[37] = tested on: PC-3
[38] = tested on: RPMI-8226
[39] = tested on: RXF 393
[40] = tested on: SF-268
[41] = tested on: SF-295
[42] = tested on: SK-MEL-2
[43] = tested on: SK-MEL-5
[44] = tested on: SK-OV-3
[45] = tested on: SN12C
[46] = tested on: SNB-19
[47] = tested on: SR
[48] = tested on: SW-620
[49] = tested on: TK-10
[50] = tested on: U-251
[51] = tested on: UACC-257
[52] = tested on: UACC-62
[53] = tested on: UO-31
[54] = tested on: NCI-H226
[55] = tested on: SF-539
[56] = tested on: SK-MEL-28
[57] = tested on: NCI-H522

`CCCCC[C@@H]1OC(=O)[C@@]2(CC3c4ccccc4C2c2ccccc23)[C@H]1C(=O)OC` was tested, and the GI50 [1] was 67.3 µM (inactive), the GI50 [2] was 13.4 µM (inactive) and the GI50 [3] was 24.4 µM (inactive). For the same compound, the GI50 [4] was 45.5 µM (inactive), the GI50 [5] was > 100 µM (inactive) and the GI50 [6] was 42.6 µM (inactive). The GI50 [7] was 17.2 µM (inactive), the GI50 [8] was 14.2 µM (inactive) and the GI50 [9] was > 100 µM (inactive). For the same compound, the GI50 [10] was 39.7 µM (inactive), the GI50 [11] was 23.6 µM (inactive) and the GI50 [12] was 12.4 µM (inactive). For the same compound, the GI50 [13] was 29.9 µM, the GI50 [14] was 6.35 µM (inactive) and the GI50 [15] was > 100 µM (inactive). The GI50 [16] was > 100 µM (inactive), the GI50 [17] was 17.3 µM (inactive) and the GI50 [18] was > 100 µM (inactive). For the same compound, the GI50 [19] was > 100 µM (inactive), the GI50 [20] was 15.8 µM (inactive) and the GI50 [21] was 45.7 µM (inactive). The GI50 [22] was 71.4 µM (inactive), the GI50 [23] was 55.2 µM (inactive) and the GI50 [24] was 21.8 µM (inactive). For the same compound, the GI50 [25] was > 100 µM (inactive), the GI50 [26] was 93.1 µM (inactive) and the GI50 [27] was 79.6 µM (inactive). For the same compound, the GI50 [28] was > 10 µM (inactive), the GI50 [29] was 53.2 µM (inactive) and the GI50 [30] was 21.9 µM (inactive). For the same compound, the GI50 [31] was 11.6 µM (inactive), the GI50 [32] was 64.6 µM (inactive) and the GI50 [33] was 92.5 µM (inactive). For the same compound, the GI50 [34] was 58.2 µM (inactive), the GI50 [35] was > 100 µM (inactive) and the GI50 [36] was 79.1 µM (inactive). The GI50 [37] was 14.6 µM (inactive), the GI50 [38] was 9.68 µM (inactive) and the GI50 [39] was 24.6 µM (inactive). For the same compound, the GI50 [40] was > 100 µM (inactive), the GI50 [41] was 71 µM (inactive) and the GI50 [42] was 28.4 µM (inactive). The GI50 [43] was 17.2 µM (inactive), the GI50 [44] was 84.7 µM (inactive) and the GI50 [45] was 74.3 µM (inactive). The GI50 [46] was > 100 µM (inactive), the GI50 [47] was 10.1 µM (inactive) and the GI50 [48] was 52 µM (inactive). The GI50 [49] was 35.9 µM (inactive), the GI50 [50] was 45 µM (inactive) and the GI50 [51] was 14.5 µM (inactive). For the same compound, the GI50 [52] was 9.29 µM (inactive) and the GI50 [53] was 85.3 µM (inactive).
`O=C(c1ccc(Cl)cc1Cl)N(C(=O)N1CCCCC1)c1ccccc1` was tested, and the GI50 [1] was > 100 µM (inactive), the GI50 [2] was > 100 µM (inactive) and the GI50 [4] was > 100 µM (inactive). For the same compound, the GI50 [5] was > 100 µM (inactive), the GI50 [6] was > 100 µM (inactive) and the GI50 [7] was > 100 µM (inactive). For the same compound, the GI50 [8] was > 100 µM (inactive), the GI50 [9] was > 100 µM (inactive) and the GI50 [10] was 5.45 µM (inactive). For the same compound, the GI50 [12] was > 100 µM (inactive), the GI50 [13] was greater than 100 µM and the GI50 [14] was > 100 µM (inactive). For the same compound, the GI50 [17] was > 100 µM (inactive), the GI50 [18] was > 100 µM (inactive) and the GI50 [19] was > 100 µM (inactive). The GI50 [20] was > 100 µM (inactive), the GI50 [21] was > 100 µM (inactive) and the GI50 [22] was > 100 µM (inactive). For the same compound, the GI50 [23] was > 100 µM (inactive), the GI50 [24] was > 100 µM (inactive) and the GI50 [25] was > 100 µM (inactive). For the same compound, the GI50 [26] was > 100 µM (inactive), the GI50 [27] was > 100 µM (inactive) and the GI50 [28] was > 100 µM (inactive). For the same compound, the GI50 [29] was 5.94 µM (inactive), the GI50 [54] was > 100 µM (inactive) and the GI50 [30] was > 100 µM (inactive). For the same compound, the GI50 [32] was > 100 µM (inactive), the GI50 [33] was 42.5 µM (inactive) and the GI50 [35] was 69.3 µM (inactive). The GI50 [36] was > 100 µM (inactive), the GI50 [37] was > 100 µM (inactive) and the GI50 [38] was > 100 µM (inactive). The GI50 [39] was > 100 µM (inactive), the GI50 [40] was > 100 µM (inactive) and the GI50 [41] was > 100 µM (inactive). For the same compound, the GI50 [55] was > 100 µM (inactive), the GI50 [56] was > 100 µM (inactive) and the GI50 [42] was > 100 µM (inactive). The GI50 [43] was > 100 µM (inactive), the GI50 [44] was > 100 µM (inactive) and the GI50 [45] was > 100 µM (inactive). For the same compound, the GI50 [46] was > 100 µM (inactive), the GI50 [48] was > 100 µM (inactive) and the GI50 [49] was > 100 µM (inactive). The GI50 [50] was > 100 µM (inactive), the GI50 [51] was > 100 µM (inactive) and the GI50 [52] was > 100 µM (inactive). For the same compound, the GI50 [53] was > 100 µM (inactive).
For `Cc1cc(C)nc(NCCC(O)(P(=O)(O)O)P(=O)(O)O)n1`, the GI50 [1] was > 100 µM (inactive), the GI50 [3] was > 100 µM (inactive) and the GI50 [4] was > 100 µM (inactive). For the same compound, the GI50 [5] was > 100 µM (inactive), the GI50 [6] was > 100 µM (inactive) and the GI50 [8] was > 100 µM (inactive). The GI50 [9] was > 100 µM (inactive), the GI50 [10] was > 100 µM (inactive) and the GI50 [11] was > 100 µM (inactive). The GI50 [12] was > 100 µM (inactive), the GI50 [13] was greater than 100 µM and the GI50 [15] was > 100 µM (inactive). The GI50 [19] was > 100 µM (inactive), the GI50 [21] was > 100 µM (inactive) and the GI50 [22] was > 100 µM (inactive). The GI50 [23] was > 100 µM (inactive), the GI50 [24] was 92.5 µM (inactive) and the GI50 [25] was > 100 µM (inactive). For the same compound, the GI50 [27] was > 100 µM (inactive), the GI50 [29] was > 100 µM (inactive) and the GI50 [54] was > 100 µM (inactive). For the same compound, the GI50 [30] was > 100 µM (inactive), the GI50 [31] was > 100 µM (inactive) and the GI50 [57] was > 100 µM (inactive). For the same compound, the GI50 [32] was > 100 µM (inactive), the GI50 [33] was 39.2 µM (inactive) and the GI50 [35] was > 100 µM (inactive). The GI50 [37] was > 100 µM (inactive), the GI50 [39] was > 100 µM (inactive) and the GI50 [40] was > 100 µM (inactive). For the same compound, the GI50 [41] was > 100 µM (inactive), the GI50 [55] was > 100 µM (inactive) and the GI50 [43] was > 100 µM (inactive). The GI50 [44] was > 100 µM (inactive), the GI50 [46] was > 100 µM (inactive) and the GI50 [49] was > 100 µM (inactive). For the same compound, the GI50 [51] was > 100 µM (inactive), the GI50 [52] was > 100 µM (inactive) and the GI50 [53] was > 100 µM (inactive).
